Experimental findings from paper PMC5746514 (The Korean Journal of Physiology & Pharmacology : …, 2017) are described below.

Broadly, the IC50 is the concentration needed to halve the response being measured.

In the test the target is T1, Kv3.1 potassium channel (Kv3.1b) (Rattus norvegicus, UniProt P25122).
T1 sequence (P25122 1-585): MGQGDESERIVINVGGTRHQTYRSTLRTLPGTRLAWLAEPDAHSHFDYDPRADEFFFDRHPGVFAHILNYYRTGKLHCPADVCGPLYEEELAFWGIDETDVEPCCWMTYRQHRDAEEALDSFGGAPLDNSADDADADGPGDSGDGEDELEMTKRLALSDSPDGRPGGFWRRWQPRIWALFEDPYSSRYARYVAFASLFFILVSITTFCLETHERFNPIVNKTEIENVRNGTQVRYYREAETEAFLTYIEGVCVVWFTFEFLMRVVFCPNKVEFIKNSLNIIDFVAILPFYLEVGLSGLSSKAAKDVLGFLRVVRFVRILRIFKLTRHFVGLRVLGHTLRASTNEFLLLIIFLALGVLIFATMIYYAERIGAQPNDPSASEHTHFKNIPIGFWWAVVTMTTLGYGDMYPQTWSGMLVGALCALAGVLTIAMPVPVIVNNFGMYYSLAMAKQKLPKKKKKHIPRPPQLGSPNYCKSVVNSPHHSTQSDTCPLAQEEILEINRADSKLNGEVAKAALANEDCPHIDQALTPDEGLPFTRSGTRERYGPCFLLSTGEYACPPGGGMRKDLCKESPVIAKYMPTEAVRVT
As to the kind of experiment: whole-cell patch clamp of transfected CHO cells. It counts as cell-based. (In general: Patch clamp records ionic current or voltage across a cell membrane.)

`Fc1ccc([C@@H]2CCNC[C@H]2COc2ccc3c(c2)OCO3)cc1` [paroxetine] yielded a half-inhibitory concentration (IC50) of 9.43 µM.
